We go through two compounds from patent US20220389112A1, “TREATMENT OF MULTIPLE MYELOMA” (priority 2019, published 2022).

Type in all cases: cell-based
The subject of data set [1] is JJN3 MM cells. Nature of the data set: CD38 expression by flow cytometry on JJN3. The following applies: treated 72 hours prior to expression measurement. The protocol: (§1) Both types of primary NK cell were cultured with the same amount of IL-2 ([…] as is standard for primary NK cell work. MM1S, H929 and JJN3 were treated with either SIA or Neura as described above and stained with an anti-CD38 antibody (BD Pharmingen-564498) for 30 mins on ice prior to being screened for expression using flow cytometry.
JJN3 MM cells were treated with 300 μM SIA and 10 nM ATRA (all-trans retinoic acid), or 300 μM SIA, 10 nM ATRA and DMSO individually for 72 hrs@37° C. After 72 hours, the cells were collected, washed with normal culture media once and then treated with Daratumumab at a concentration of 10 μg/ml for 30 mins at room temperature.
Some cells from all treatment conditions were not treated with Daratumumab and were instead screened for CD38 expression using an anti-CD38 antibody.
Background: Flow cytometry measures light scatter and fluorescence of single cells or particles in a stream.

Data set [2] concerns MM cell line MM1S. The data set can be described thus: CD38 expression by flow cytometry on MM1S. The following applies: anti-CD38 staining, vs non-treated controls. The method, then: (§2) Desialylation: Target cells were cultured with 300 μM 3Fax-Peracetyl Neu5Ac (SIA, sialyltransferase inhibitor) for 72 hrs prior to use or treated with Neuraminidase (Neura, sialidase) for 45 mins@37° C. prior to use.
as §1

Data set [3] deals with H929 target myeloma cell line. The data set can be described thus: NK cell mediated cytotoxicity co-culture against H929. The following applies: expanded primary NK cells, co-cultures 4 hrs.
Protocol: Co-cultures were carried out with either expanded (Miltenyi method) primary NK cells or IL-2 activated primary NK cells, both originally isolated from peripheral blood supplied by healthy donors and H929 and JJN3 target myeloma cell lines.
Propidium Iodide was used in flow cytometry to identify dead cells. MM cells were separated from NK cells by staining NK cells with CFSE cell tracking dye prior to initiating the co-culture.
% specific lysis (reported in all our figures) was calculated using the following formula:
Total cell death−basal cell death/100−basal cell death×100=%
Cell death here applies to target cells (e.g. JJN3 and H929)
After 30 mins treatment with Daratumumab, cells were co-cultured with primary expanded NK cells (Miltenyi method) for 4 hours at either 0.5:1 or 1:1 E:T (Effector:Target) ratios.
Data set [4] relates to MM cell line H929. The data set can be described thus: CD38 expression by flow cytometry on H929. The following applies: anti-CD38 staining, vs non-treated controls. The method, then: as §2, §1

Consider `CC1=C(/C=C/C(C)=C/C=C/C(C)=C/C(=O)O)C(C)(C)CCC1` [ATRA, all-trans retinoic acid], for which the CD38 expression entry in data set [1] is “strongly up-regulates CD38 expression”.
On to `COC(=O)C1(OC(C)=O)OC(C(OC(C)=O)C(COC(C)=O)OC(C)=O)C(NC(C)=O)C(OC(C)=O)C1F` (stereo not shown) [SIA, 3Fax-Peracetyl Neu5Ac], for which the “CD38 expression (MFI)” value in data set [2] and in data set [4] was “unmasks CD38” each time. Moreover, in data set [3], the “expanded primary NK cell-mediated cytotoxicity (% specific lysis)” value is on record as “enhanced expanded primary NK cell-mediated cytotoxicity”.
